Measured values published in patent publication US8097617B2, “Organic compounds” (Novartis AG, priority 2006, dated 2012).

Biological target: T1, human DPP-IV (Homo sapiens, UniProt P27487)
T1 construct: Human DPP-IV consisting of amino acids 39 to 766 followed by a C-terminal Streptavidin-tag; Streptavidin-tag (C); made in house
Assay: DPP-IV inhibitory activity assay, fluorogenic substrate H-Gly-Pro-AMC
Format: biochemical
Conditions: recombinant human DPP-IV (aa 39-766), substrate H-Gly-Pro-AMC 10 μM, room temperature, 1 hour; read-out: IC50 (inhibitory activity to human DPP-4)
Experimental: Some of Compounds 1 to 40 were tested for their inhibitory activity to human DPP-IV.
Human DPP-IV consisting of amino acids 39 to 766 followed by a C-terminal Streptavidin-tag was expressed using the baculovirus system and purified to >80% purity. The enzyme was stored in 25 mM Tris buffer, pH 9.0, containing 300 mM NaCl at −80° C.
The fluorogenic substrates H-Gly-Pro-AMC was purchased from Bachem AG (Bubendorf, Switzerland). The substrate was kept as a 5 mM stock solution in DMSO at −20° C. All other chemicals were purchased from Sigma (Buchs, Switzerland).
The assay buffer for the DPP-IV reaction was 25 mM Tris/HCl, pH 7.5, containing 140 mM NaCl, 10 mM KCl and 0.05% (w/v) CHAPS.
The test compounds were dissolved in 90% DMSO/10% H2O (v/v). Serial dilutions of the compounds from 3 mM to 0.03 μM in 90% DMSO/10% H2O (v/v) followed by a 1:33.3 dilution in assay buffer was done in 96-well polypropylene plates using a CyBio Dilus 8-channel pipettor (CyBio AG, Jena, Germany) with tip change after each pipetting step. The compound solutions as well as the substrate and the enzyme solutions were transferred to the assay plates (384-well black Cliniplate; cat. no. 95040020 Labsystems Oy, Finland) by means of a CyBi-Well 96-channel pipettor (CyBio AG, Jena, Germany).
Enzyme kinetics were measured by mixing 10 μl of a 3-fold concentrated substrate solution in assay buffer (final substrate concentration was 10 μM) with 10 μl of the corresponding compound solution. The reactions were initiated by addition of 10 μl of a 3-fold concentrated solution of the enzyme in assay buffer. Final enzyme (active site) concentrations in the assay was […] for DPP-IV. Fluorescence product (AMC) formation was monitored for 1 hour at room temperature at 35 second intervals by measuring the fluorescence emission at 500 nm using an exitation wavelength of 350 nm in a TECAN Ultra fluorescence reader (TECAN, Maennedorf, Switzerland). The fluorescence in each well was excited by one flash per measurement. The Origin software package (Origin 7.5 Mircocal, Northampton, Mass., USA) was used to generate all graphs and to perform the IC50 calculations.

T1 sequence (P27487 39-766): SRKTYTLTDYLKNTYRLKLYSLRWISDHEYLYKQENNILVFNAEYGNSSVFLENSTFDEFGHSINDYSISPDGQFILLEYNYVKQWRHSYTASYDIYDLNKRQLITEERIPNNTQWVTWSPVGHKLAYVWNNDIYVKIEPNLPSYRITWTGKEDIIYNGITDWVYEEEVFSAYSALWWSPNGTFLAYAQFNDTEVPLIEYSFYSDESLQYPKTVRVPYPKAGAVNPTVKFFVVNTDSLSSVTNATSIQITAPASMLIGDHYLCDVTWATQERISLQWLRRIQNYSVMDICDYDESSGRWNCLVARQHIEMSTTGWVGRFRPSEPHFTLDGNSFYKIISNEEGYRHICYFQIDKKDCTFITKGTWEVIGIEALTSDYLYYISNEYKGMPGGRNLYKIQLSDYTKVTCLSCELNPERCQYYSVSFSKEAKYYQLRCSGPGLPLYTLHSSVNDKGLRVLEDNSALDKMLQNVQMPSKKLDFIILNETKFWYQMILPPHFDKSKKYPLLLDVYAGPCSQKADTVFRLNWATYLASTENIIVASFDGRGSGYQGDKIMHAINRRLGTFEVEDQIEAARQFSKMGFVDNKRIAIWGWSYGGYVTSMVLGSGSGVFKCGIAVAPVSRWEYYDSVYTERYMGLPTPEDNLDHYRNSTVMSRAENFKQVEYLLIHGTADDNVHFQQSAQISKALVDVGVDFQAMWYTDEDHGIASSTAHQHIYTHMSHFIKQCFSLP

Row | SMILES | IC50
1 | NCc1cc2ncc(-c3ccc(F)c(F)c3)n2cc1-c1ccc(Cl)cc1Cl [Compound 4d, C-[6-(2,4-Dichloro-phenyl)-3-(3,4-difluoro-phenyl)-imidazo[1,2-a]pyridin-7-yl]-methylamine] | 23 nM
2 | NCc1cc2ncc(C(=O)N3CCOCC3)n2cc1-c1ccc(Cl)cc1Cl [Compound 27a, [7-Aminomethyl-6-(2,4-dichloro-phenyl)-imidazo[1,2-a]pyridin-3-yl]-morpholin-4-yl-methanone] | 22 nM
3 | CN1CCC(C(=O)Nc2nnc3cc(CN)c(-c4ccc(Cl)cc4Cl)cn23)CC1 [Compound 18b, 1-Methyl-piperidine-4-carboxylic acid [7-aminomethyl-6-(2,4-dichloro-phenyl)-[1,2,4]triazolo[4,3-a]pyridin-3-yl]-amide] | 25 nM
4 | COCCN(C)c1cnc2cc(CN)c(-c3ccc(Cl)cc3Cl)cn12 [Compound 7, [7-Aminomethyl-6-(2,4-dichloro-phenyl)-imidazo[1,2-a]pyridin-3-yl]-(2-methoxy-ethyl)-methyl-amine] | 23 nM
